How the values were obtained:
[1] = system: PKCδ/θ-IκBα/ε-NF-κB signaling; assay: Western blot of PKC isoforms, IκB isoforms and NF-κB/p65; format: cell-based; conditions: J-Lat A1 cells
Method: Western blot analysis was performed to detect the expression of PKC isoforms, IκB isoforms, as well as expression of NF-κB/p65.
Whole cell protein extracts were prepared with RIPA buffer containing proteinase inhibitors and phosphatase inhibitors (Sigma). Expression of the isoforms of PKC protein or NF-κB/p65 was evaluated using the PKC Isoform Sampler Antibody Kit (Cell Signaling, 9960S) or anti-NF-κB/p65 (Abcam). The level of phosphorylation of PKC was determined using anti-Phospho-Ser664-PKCδ, anti-Phospho-Ser643/676 PKCδ or anti-Phospho-T538-PKCθ (Millipore), and the level of phosphorylation of IκB was determined using p-IκBα(Ser32), p-IκBβ (Thr19/Ser23) or p-IκBε(Ser18/22) antibodies (Millipore).

[2] = system: NF-κB/p65 binding to HIV LTR; assay: ChIP-qPCR of NF-κB/p65 binding to the HIV LTR in J-Lat A1 cells; format: cell-based; conditions: 12 nM PEP005
Method: FIG. 4: PEP005-induced HIV reactivation is mediated through PKCδ/θ-IκBα/ε-NF-κB signaling. (A) PEP005-induced HIV reactivation is suppressed by inhibition of the PKCδ/θ. J-Lat A1 cells were treated with 6 nM of PEP005 in the presence of 1, 2 or 5 μM of PKC inhibitor (PKCθ/δ inhibitor; Milipore/Calbiochem (539649)) and evaluated for GFP expression by RT-qPCR. (B) NF-κB inhibition partially suppresses PEP005-induced HIV reactivation in J-Lat A1 cells. J-Lat A1 cells were treated with 6 nM of PEP005 in the presence of 2.5 μM Bay 11-7082, an NF-κB inhibitor, and were evaluated for GFP expression by RT-qPCR. (C) J-Lat A1 cells were treated with PEP005 or alternatively with PKC inhibitor alone or in the presence of PEP005 and the relative binding of NF-κB to the HIV LTR was determined using ChIP-qPCR.
Chromatin immunoprecipitation (ChIP): ChIP assay was performed as previously described. Briefly, 1×10^6 J-Lat A1 cells were incubated with PEP005, or PKCδ/θ inhibitor (PKGδi, Millipore/Calbiochem), fixed in 1% formaldehyde then resuspended in lysis buffer containing 1% SDS, 10 mM EDTA, 50 mM Tris-HCl, pH 8.1 (ChIP Assay Kit, Millipore) and protease inhibitor cocktail (Sigma-Aldrich). […] DNA was extracted (Qiagen PCR purification kit) and quantitative real-time PCR was performed using Agilent Brilliant Ultra-Fast SYBR Green QPCR reagent using the 7500 real-time PCR System. […]

primary CD4+ T cells = assay: Pro-inflammatory cytokine expression in primary CD4+ T cells (RT-qPCR); format: cell-based, human; conditions: CD4+ T cells of healthy HIV-negative donors, 6 or 12 nM PEP005, 24 or 72 hours
Method: CD4+ T cells were isolated from healthy donors and treated with 6 or 12 nM of PEP005 for 24 or 72 hours, and the relative expression of TNF-α (A), IFN-γ (B), IL-2 (C), and IL-6 (D) was quantified using RT-qPCR and normalized to GAPDH internal control.

[3] = system: latent HIV in primary CD4+ T cells; assay: Ex vivo HIV transcription in primary CD4+ T cells from HIV infected individuals on suppressive ART (RT-qPCR); format: cell-based
Method: Primary CD4+ T cells were isolated from peripheral blood of HIV infected individuals on suppressive ART and treated with 6 or 12 nM PEP005, 200 ng/ml PMA plus 2 μM lonomycin, or DMSO for 6 hours. Induction of HIV transcription was measured using RT-qPCR for the 5′ LTR region or Poly A region of the virus. **, p<0.01.
Primary CD4+ T cells were isolated from the peripheral blood of HIV positive individuals on suppressive ART and treated with 12 nM PEP005 alone or in combination with JQ1 for 6 hours, and HIV transcription was quantified using RT-qPCR for the 5′ LTR region or Poly A region of the virus.
Primary CD4+ T cells were isolated from the peripheral blood of HIV positive individuals on suppressive ART and treated with 12 nM PEP005 alone or in combination with JQ1 for 48 hours, and HIV transcription was quantified using RT-qPCR for the 5′ LTR region or Poly A region of the virus.
Primary CD4+ T cells were isolated from the peripheral blood of HIV positive individuals on suppressive ART and treated with 12 nM PEP005 alone or in combination with JQ1 for 6 or 48 hours, and HIV transcription was quantified using RT-qPCR for the 5′ LTR region or Poly A region of the virus.
Peripheral blood samples were collected from 13 HIV-infected individuals receiving suppressive ART for >3 years except for one patient. All subjects had suppression of plasma viremia for more than 6 months (Average 5.84 years). At the time of the study enrollment, CD4+ T cell counts in peripheral blood samples ranged from 264 to 1100 cells/mm^3 (Average 639 cell/mm^3) and plasma viral loads were <20 copies per ml as measured by qPCR (Table 1). Isolation of the peripheral blood mononuclear cells (PBMC) and purification of CD4+ T cells using the EasySep kit ([sequence] Technologies Inc. Vancouver, BC, Canada) were performed as previously described [24]. The purified CD4+ T cells were plated at a density of 1×10^6 cells/ml and treated with 200 ng/ml PMA plus 2 μM Ionomycin, 6-12 nM PEP005, 2 μM of JQ1, or 12 nM PEP005 plus 2 μM JQ1 for 6 hrs or 48 hrs and the cells were collected for RNA purification.

[4] = systemic (intravenous), mini pig and rat model; cited from earlier work

## C/C=C(/C)C(=O)O[C@H]1C(C)=C[C@]23C(=O)[C@@H](C=C(CO)[C@@H](O)[C@]12O)[C@H]1[C@@H](C[C@H]3C)C1(C)C [PEP005, (1aR,2S,5R,5aS,6S,8aS,9R,10aR)-5,5a-Dihydroxy-4-(hydroxymethyl)-1,1,7,9-tetramethyl-11-oxo-1a,2,5,5a,6,9,10,10a-octahydro-1H-2,8a-methanocyclopenta[a]cyclpropa[e][10]annulen-6-yl (2Z)-2-methylbut-2-enoate]
[1]; 12 nM PEP005
  expression of NF-κB/p65: did not change
  phosphorylation of IκB isoforms: induced phosphorylation of IκBα and IκBε, but not of IκBβ
[1]; 12 nM PEP005, 1 hr
  expression of PKC proteins: modest up-regulation of PKCδ
[1]; 12 nM PEP005, as early as 30 minutes post treatment
  phosphorylation of Ser643/Ser676 in PKCδ/θ: greater than a two-fold increase
[2]
  increase in NF-κB/p65 binding to HIV LTR region: 6 fold
Primary CD4+ T cells
  expression of TNF-α, IFN-γ, IL-2, and IL-6: no significant increase
Primary CD4+ T cells; not statistically significant
  expression of TNF-α: tendency towards an up-regulation
[3]; 6 nM PEP005, 6 hrs
  individuals with increase in HIV transcription, 5′ LTR region: 2 out of 7
[3]; 12 nM PEP005
  donors with 2 or >2 fold increase in full-length HIV transcripts, poly A region: 5 of the 6
[3]; 12 nM PEP005, 6 hr, vs control treatment
  HIV RNA copy number in 1 μg of total RNA from CD4+ T cells: significantly induced latent HIV reactivation
[3]; 12 nM PEP005, 6 hrs
  individuals with HIV transcription, 5′ LTR region: 5 out of 7
[3]; After 6 hours of PEP005 treatment
  donors with 2 fold or >2 fold increase in full-length HIV transcripts, poly A region: 5 of the 7
[4]
  maximum nonlethal dose: > 0.073 mg/kg

— patent US10376486B2, “Compositions and methods for reactivating latent viral infections” (priority 2014, dated 2019)
